Measured values as given in ChEMBL document CHEMBL5291721, “A preclinical secondary pharmacology resource illuminates target-adverse drug reaction associations of marketed drugs” (Nat Commun, 2023).

Legend:
[1] = molecular target: T1, Type-2 angiotensin II receptor (Homo sapiens, UniProt P50052); assay type: functional
T1 sequence (P50052 whole entry): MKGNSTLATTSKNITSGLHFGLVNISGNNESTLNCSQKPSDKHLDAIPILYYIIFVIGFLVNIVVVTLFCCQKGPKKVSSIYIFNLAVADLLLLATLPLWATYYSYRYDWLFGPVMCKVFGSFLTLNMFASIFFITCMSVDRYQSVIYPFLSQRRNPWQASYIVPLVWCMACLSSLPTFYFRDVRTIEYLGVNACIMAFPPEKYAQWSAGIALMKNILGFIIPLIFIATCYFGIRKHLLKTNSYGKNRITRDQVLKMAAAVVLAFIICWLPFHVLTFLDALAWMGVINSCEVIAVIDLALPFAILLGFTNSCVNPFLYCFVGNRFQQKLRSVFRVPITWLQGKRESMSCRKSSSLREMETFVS

[2] = molecular target: Gamma-aminobutyric acid receptor subunit alpha-1/alpha-2/beta-2/gamma-2 (Homo sapiens, UniProt P14867+P18507+P47869+P47870); assay type: functional, cell-based
[3] = molecular target: T2, Peroxisome proliferator-activated receptor gamma (Homo sapiens, UniProt P37231); assay type: functional
T2 sequence (P37231 whole entry): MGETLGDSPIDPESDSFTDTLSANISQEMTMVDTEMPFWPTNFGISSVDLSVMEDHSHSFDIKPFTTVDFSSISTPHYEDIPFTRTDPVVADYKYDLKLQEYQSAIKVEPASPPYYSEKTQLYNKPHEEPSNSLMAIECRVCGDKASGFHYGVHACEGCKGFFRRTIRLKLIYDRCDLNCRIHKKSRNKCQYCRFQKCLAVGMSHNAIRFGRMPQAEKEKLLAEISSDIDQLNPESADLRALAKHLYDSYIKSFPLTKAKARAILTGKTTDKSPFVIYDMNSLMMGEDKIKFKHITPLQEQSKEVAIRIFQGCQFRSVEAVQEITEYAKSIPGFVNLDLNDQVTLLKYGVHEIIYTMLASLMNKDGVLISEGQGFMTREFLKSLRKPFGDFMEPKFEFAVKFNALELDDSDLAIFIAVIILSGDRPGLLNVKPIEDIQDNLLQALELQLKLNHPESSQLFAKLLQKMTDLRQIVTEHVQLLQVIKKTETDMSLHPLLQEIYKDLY

[4] = molecular target: T3, Muscarinic acetylcholine receptor M1 (Homo sapiens, UniProt P11229)
T3 sequence (P11229 whole entry): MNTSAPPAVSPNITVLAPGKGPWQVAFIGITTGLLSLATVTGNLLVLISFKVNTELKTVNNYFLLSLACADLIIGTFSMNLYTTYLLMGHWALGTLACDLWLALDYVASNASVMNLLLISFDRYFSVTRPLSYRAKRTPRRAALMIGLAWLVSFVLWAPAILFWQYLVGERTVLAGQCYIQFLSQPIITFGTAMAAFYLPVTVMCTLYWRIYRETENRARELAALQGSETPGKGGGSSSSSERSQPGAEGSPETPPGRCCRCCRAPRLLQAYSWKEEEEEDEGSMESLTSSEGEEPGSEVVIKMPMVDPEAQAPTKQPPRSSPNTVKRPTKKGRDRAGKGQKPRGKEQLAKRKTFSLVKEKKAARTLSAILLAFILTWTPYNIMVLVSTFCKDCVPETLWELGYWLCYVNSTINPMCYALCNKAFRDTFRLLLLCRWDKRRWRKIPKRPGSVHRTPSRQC

[5] = molecular target: T4, Muscarinic acetylcholine receptor M4 (Homo sapiens, UniProt P08173)
T4 sequence (P08173 whole entry): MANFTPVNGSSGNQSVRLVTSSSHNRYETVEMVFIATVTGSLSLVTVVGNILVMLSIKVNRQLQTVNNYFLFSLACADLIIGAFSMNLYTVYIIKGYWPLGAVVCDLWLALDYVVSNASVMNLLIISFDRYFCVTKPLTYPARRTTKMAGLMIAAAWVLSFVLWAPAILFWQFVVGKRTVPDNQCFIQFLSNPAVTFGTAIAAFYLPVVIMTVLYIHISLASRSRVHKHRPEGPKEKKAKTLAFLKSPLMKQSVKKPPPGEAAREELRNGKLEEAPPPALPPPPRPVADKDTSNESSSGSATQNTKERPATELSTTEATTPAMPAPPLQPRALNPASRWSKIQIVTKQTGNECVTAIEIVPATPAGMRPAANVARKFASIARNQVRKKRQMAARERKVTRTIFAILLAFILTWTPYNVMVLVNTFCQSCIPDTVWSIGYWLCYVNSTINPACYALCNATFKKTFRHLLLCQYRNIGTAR

D(1A) dopamine receptor = D(1A) dopamine receptor (Homo sapiens, UniProt P21728)
[6] = molecular target: Gamma-aminobutyric acid type B receptor subunit 1 (Homo sapiens, UniProt Q9UBS5)
[7] = molecular target: 5-hydroxytryptamine receptor 7 (Homo sapiens, UniProt P34969)
Substance-K receptor = molecular target: T5, Substance-K receptor (Homo sapiens, UniProt P21452)
T5 sequence (P21452 whole entry): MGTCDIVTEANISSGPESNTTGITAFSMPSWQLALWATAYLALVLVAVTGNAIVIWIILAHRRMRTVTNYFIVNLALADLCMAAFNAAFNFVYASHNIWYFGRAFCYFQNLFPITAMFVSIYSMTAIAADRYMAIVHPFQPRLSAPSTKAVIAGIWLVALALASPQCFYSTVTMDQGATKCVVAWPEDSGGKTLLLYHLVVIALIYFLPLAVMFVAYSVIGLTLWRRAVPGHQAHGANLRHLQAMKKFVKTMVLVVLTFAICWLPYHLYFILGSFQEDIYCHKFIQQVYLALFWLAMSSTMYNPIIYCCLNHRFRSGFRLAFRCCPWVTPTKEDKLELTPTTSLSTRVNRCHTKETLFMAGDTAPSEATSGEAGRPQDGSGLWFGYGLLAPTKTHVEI

[8] = molecular target: T6, Corticotropin-releasing factor receptor 1 (Homo sapiens, UniProt P34998)
T6 sequence (P34998 whole entry): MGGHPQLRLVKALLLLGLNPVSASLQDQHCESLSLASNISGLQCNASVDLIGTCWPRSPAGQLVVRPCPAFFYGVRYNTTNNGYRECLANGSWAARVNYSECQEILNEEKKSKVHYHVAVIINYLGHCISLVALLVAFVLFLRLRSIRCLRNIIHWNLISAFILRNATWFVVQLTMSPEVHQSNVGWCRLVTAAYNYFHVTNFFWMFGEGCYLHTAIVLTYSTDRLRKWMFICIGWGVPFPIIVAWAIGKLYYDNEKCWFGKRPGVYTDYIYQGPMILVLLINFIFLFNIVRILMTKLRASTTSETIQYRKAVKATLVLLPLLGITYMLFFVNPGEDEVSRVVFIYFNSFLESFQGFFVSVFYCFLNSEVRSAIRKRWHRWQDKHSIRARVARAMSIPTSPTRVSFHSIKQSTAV
Note: assay procedure not described here.

D(1A) dopamine receptor, sequence (P21728 whole entry): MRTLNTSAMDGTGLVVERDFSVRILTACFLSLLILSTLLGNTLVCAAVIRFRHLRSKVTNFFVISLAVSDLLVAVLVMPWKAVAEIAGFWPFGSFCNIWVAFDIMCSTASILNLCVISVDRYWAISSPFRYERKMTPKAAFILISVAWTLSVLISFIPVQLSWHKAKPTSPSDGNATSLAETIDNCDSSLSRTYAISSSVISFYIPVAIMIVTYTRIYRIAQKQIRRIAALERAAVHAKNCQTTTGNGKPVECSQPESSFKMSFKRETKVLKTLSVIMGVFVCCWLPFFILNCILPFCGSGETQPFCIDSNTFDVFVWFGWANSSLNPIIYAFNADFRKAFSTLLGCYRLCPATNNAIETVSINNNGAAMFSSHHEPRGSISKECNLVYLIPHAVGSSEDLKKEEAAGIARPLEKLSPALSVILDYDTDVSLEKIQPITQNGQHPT
Gamma-aminobutyric acid type B receptor subunit 1, sequence (Q9UBS5 whole entry): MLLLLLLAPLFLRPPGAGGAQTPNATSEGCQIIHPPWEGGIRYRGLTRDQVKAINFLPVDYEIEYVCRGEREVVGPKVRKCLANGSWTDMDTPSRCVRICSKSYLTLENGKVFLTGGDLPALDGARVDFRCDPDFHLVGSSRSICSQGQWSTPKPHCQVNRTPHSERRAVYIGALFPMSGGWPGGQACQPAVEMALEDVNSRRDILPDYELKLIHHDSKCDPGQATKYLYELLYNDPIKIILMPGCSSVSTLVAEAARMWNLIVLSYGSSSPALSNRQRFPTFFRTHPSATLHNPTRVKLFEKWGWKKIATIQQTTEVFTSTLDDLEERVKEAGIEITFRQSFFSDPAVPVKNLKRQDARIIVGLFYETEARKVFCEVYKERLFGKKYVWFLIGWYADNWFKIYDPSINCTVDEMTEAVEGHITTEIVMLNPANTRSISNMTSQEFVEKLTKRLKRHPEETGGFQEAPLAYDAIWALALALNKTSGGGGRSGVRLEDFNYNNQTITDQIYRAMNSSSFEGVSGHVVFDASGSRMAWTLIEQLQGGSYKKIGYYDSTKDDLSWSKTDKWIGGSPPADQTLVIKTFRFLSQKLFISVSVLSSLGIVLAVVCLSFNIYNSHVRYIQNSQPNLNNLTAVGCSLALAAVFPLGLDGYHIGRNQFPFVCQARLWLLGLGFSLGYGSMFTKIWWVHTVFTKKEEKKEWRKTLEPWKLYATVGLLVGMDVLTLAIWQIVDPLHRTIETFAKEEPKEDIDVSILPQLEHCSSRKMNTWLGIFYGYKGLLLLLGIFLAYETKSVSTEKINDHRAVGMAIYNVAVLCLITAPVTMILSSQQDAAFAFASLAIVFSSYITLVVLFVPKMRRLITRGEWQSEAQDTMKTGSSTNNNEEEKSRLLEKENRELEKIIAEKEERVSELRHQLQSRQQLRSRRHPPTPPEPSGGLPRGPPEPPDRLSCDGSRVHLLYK
5-hydroxytryptamine receptor 7, sequence (P34969 whole entry): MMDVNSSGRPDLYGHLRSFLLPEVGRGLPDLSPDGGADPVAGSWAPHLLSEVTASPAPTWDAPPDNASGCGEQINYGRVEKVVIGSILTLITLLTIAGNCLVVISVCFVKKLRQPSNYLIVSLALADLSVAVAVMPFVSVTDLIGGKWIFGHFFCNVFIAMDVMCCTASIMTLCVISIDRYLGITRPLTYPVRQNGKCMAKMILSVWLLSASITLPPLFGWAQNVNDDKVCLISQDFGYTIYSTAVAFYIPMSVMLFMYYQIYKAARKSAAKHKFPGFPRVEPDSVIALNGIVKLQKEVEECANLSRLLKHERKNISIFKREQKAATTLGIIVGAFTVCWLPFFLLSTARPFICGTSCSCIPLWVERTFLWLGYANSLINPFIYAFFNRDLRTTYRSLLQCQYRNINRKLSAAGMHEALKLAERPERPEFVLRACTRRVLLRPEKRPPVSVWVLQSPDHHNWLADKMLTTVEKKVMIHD
Gamma-aminobutyric acid receptor subunit alpha-1/alpha-2/beta-2/gamma-2, sequence (P14867 whole entry): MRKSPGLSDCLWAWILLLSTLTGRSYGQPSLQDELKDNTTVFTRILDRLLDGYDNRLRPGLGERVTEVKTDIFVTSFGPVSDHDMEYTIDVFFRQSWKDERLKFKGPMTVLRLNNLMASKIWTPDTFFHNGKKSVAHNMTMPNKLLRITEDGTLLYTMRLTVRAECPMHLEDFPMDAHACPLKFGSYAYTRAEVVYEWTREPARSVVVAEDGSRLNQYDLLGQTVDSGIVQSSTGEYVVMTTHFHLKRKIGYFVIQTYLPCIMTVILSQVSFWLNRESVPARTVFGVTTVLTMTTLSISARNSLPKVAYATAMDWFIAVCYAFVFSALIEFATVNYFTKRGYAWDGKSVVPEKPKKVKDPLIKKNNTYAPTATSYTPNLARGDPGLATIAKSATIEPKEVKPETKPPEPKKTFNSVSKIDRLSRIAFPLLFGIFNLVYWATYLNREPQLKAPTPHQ
Gamma-aminobutyric acid receptor subunit alpha-1/alpha-2/beta-2/gamma-2, sequence (P47870 whole entry): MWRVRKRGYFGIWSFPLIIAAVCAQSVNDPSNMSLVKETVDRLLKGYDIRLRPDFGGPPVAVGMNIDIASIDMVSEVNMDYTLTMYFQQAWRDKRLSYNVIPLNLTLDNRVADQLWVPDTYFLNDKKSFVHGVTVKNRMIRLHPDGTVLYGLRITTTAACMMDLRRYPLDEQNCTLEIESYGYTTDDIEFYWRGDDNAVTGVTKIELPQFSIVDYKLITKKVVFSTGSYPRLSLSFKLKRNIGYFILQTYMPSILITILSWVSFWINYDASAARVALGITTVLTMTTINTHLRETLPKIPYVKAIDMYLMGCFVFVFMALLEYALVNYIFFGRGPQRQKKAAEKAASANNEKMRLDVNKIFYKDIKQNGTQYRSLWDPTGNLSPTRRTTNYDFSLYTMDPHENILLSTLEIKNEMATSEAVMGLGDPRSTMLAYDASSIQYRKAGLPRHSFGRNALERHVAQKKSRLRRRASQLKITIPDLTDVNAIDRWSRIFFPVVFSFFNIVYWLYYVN
Gamma-aminobutyric acid receptor subunit alpha-1/alpha-2/beta-2/gamma-2, sequence (P18507 whole entry): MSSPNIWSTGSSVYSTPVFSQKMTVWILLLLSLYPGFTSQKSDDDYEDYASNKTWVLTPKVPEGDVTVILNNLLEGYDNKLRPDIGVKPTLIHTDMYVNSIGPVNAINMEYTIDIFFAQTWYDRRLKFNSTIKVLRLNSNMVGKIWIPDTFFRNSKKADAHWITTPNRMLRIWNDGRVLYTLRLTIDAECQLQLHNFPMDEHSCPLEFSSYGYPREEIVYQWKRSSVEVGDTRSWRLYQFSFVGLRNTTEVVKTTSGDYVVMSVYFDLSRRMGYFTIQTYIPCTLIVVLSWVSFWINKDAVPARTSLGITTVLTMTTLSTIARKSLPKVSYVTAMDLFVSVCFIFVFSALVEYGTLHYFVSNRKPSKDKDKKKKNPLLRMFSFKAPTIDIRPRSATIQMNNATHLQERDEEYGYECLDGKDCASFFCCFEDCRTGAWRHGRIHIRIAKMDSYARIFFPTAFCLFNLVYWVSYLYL
Gamma-aminobutyric acid receptor subunit alpha-1/alpha-2/beta-2/gamma-2, sequence (P47869 whole entry): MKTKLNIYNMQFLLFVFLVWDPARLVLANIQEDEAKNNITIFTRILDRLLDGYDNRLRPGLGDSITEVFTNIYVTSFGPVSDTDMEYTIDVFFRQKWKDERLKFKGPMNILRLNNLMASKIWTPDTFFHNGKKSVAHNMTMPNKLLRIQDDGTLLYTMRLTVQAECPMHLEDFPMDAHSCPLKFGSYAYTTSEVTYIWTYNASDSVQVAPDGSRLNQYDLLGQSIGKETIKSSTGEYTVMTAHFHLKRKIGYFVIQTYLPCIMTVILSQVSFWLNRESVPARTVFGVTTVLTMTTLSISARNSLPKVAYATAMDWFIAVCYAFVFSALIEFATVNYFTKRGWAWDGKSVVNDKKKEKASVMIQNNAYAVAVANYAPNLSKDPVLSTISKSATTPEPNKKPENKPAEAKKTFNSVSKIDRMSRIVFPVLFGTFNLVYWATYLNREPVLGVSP

With CN(C)Cc1nnc2n1-c1ccc(Cl)cc1C(c1ccccc1)=NC2 [ADINAZOLAM] as the compound, how does the AC50 [1] read?
The AC50 was > 100 µM.

Which results are given for CN(C)C/C=C/C(=O)Nc1cc2c(Nc3ccc(F)c(Cl)c3)ncnc2cc1O[C@H]1CCOC1 [AFATINIB]?
AC50 [2]: > 30 µM; AC50 [3]: > 30 µM

Which AC50 [4] does the source give for O=C(/C=C/c1cccc(S(=O)(=O)Nc2ccccc2)c1)NO [BELINOSTAT] here?
Its AC50 is > 30 µM.

And the AC50 [5]?
The AC50 was > 10 µM.

And the AC50 (D(1A) dopamine receptor)?
The AC50 was > 30 µM.

And the AC50 [6]?
The AC50 was > 10 µM.

What about the AC50 [7] of the same compound?
The AC50 was > 10 µM.

What about the AC50 (Substance-K receptor) of the same compound?
Its AC50 is > 10 µM.

CC(C)(Oc1ccc(CCNC(=O)c2ccc(Cl)cc2)cc1)C(=O)O [BEZAFIBRATE] was tested. Which AC50 [3] did it give?
The AC50 was > 30 µM.

With CC(O)(CS(=O)(=O)c1ccc(F)cc1)C(=O)Nc1ccc(C#N)c(C(F)(F)F)c1 (configuration not stated) [BICALUTAMIDE] as the compound, how does the AC50 [8] read?
The AC50 was > 30 µM.

What about the AC50 [6] of the same compound?
Its AC50 is > 10 µM.

And the AC50 [7]?
The AC50 was > 10 µM.

How did the AC50 [8] turn out when O=C(O)COCCN1CCN(C(c2ccccc2)c2ccc(Cl)cc2)CC1 (configuration not stated) [CETIRIZINE] was run?
Its AC50 is > 30 µM.

How did the AC50 (D(1A) dopamine receptor) turn out when NC[C@H]1CC[C@H](C(=O)Oc2ccc(CCC(=O)O)cc2)CC1 [CETRAXATE] was run?
Its AC50 is > 30 µM.

What does the source list for C[C@@H]1C[C@H]2[C@@H]3C[C@H](F)C4=CC(=O)C=C[C@]4(C)[C@@]3(F)[C@@H](O)C[C@]2(C)[C@@]1(OC(=O)c1ccco1)C(=O)SCF [FLUTICASONE FUROATE]?
AC50 [5]: > 10 µM; AC50 [6]: > 10 µM; AC50 [7]: > 10 µM; AC50 (Substance-K receptor): > 10 µM

CNCCc1ccc(OC(=O)C(C)C)c(OC(=O)C(C)C)c1 [IBOPAMINE] was tested. Which AC50 [2] did it give?
The AC50 was > 30 µM.

Which AC50 [1] does the source give for CN(C)CCCN1c2ccccc2CCc2ccccc21 [IMIPRAMINE] here?
Its AC50 is > 100 µM.

And the AC50 [5]?
The AC50 was 1.07 µM.

And the AC50 [8]?
The AC50 was > 30 µM.

And the AC50 [7]?
Its AC50 is > 10 µM.

And the AC50 (Substance-K receptor)?
The AC50 was > 10 µM.

For CN(Cc1cnc2nc(N)nc(N)c2n1)c1ccc(C(=O)N[C@@H](CCC(=O)O)C(=O)O)cc1 [METHOTREXATE], which AC50 [8] is on record?
Its AC50 is > 30 µM.

O=C(O)c1cccnc1Nc1cccc(C(F)(F)F)c1 [NIFLUMIC ACID] was tested. Which AC50 [1] did it give?
Its AC50 is > 100 µM.

Which results are given for OC[C@H]1O[C@@H](n2cnc3c2NC=NC[C@H]3O)C[C@@H]1O [PENTOSTATIN]?
AC50 [2]: > 30 µM; AC50 [3]: > 30 µM

How did the AC50 [3] turn out when CC(C)c1cccc(C(C)C)c1O [PROPOFOL] was run?
The AC50 was > 30 µM.

How did the AC50 [8] turn out when CN[C@@H](C)[C@@H](O)c1ccccc1 [PSEUDOEPHEDRINE] was run?
The AC50 was > 30 µM.

Which AC50 [2] does the source give for O=C1OC(OC(=O)c2cccnc2Nc2cccc(C(F)(F)F)c2)c2ccccc21 (configuration not stated) [TALNIFLUMATE] here?
The AC50 was > 30 µM.

What does the source list for O=S1(=O)CCN(CN2CCS(=O)(=O)NC2)CN1 [TAUROLIDINE]?
AC50 [4]: > 30 µM; AC50 (D(1A) dopamine receptor): > 30 µM; AC50 [2]: > 30 µM

With COc1ccc2c(C(=S)N(C)CC(=O)O)cccc2c1C(F)(F)F [TOLRESTAT] as the compound, how does the AC50 [4] read?
The AC50 was > 30 µM.

And the AC50 (D(1A) dopamine receptor)?
The AC50 was > 30 µM.
